Data published in patent US20140050669A1, “USE OF RADIOGRAPHIC CONTRAST AGENTS FOR DETECTING DENTAL CARIES” (Creighton University, priority 2011, published 2014).

Legend:
[1] = comparison of contrast agents applied in turn to the same tooth cavity, radiographic analysis
Description: A 9M solution of sodium iodide (an ionic contrast agent) and a 76% solution of iopamidol (a non-ionic contrast agent) were administered. Each compound was applied in turn under identical conditions to the same tooth cavity and the tooth was radiographically analyzed as discussed above. After application and testing of each compound, the contrast was washed out from the tooth, and the tooth was tested radiographically to ensure there was no contrast remaining.
A barium sulfate solution comprising 1 gram of barium sulfate in 0.5 ml distilled water was administered. The compound was applied, and the tooth was analyzed and compared to other contrast agents and to the control treated tooth as discussed in Example 4. After application and testing of each compound, the contrast was washed out from the tooth and the tooth was tested radiographically to ensure there was no contrast remaining.

[2] = barium sulfate 96% w/w, radiograph 15 seconds after application
Description: The radiograph was taken 15 seconds after barium sulfate (96% w/w) was applied.

[3] = x-ray imaging of cavitated surface versus sound healthy surface; settings: 9 M sodium iodide solution, x-ray 2 minutes after administration
Description: An experiment was performed to test the ability of the topical intra-oral compositions and methods to differentiate between cavitated surfaces (dental caries) and healthy, sound surfaces. Specifically, an x-ray image of a tooth with an identified cavitated surface on one side of the tooth and a sound surface on the other side was performed, without administering the topical intra-oral composition. This image was used as a control for determining the ability of the topical intra-oral compositions to selectively absorb into cavitated surfaces, rather than sound surfaces. Subsequently, the same tooth was administered a composition comprising sodium iodide and distilled water, with the composition having a sodium iodide concentration of 9 molar. After administration of the composition to the tooth, an x-ray image was obtained 2 minutes after administration. The results are illustrated in FIG. 2.

[4] = x-ray imaging of cavitated lesion versus non-cavitated lesion; settings: 9 M sodium iodide solution, x-ray 3 minutes after administration
Description: An experiment was performed to test the ability of the topical intra-oral compositions and methods to differentiate between cavitated surfaces (a cavity) requiring treatment and non-cavitated lesions not requiring treatment. Specifically, an x-ray image of a tooth with an identified cavitated surface on the right side of the tooth and a non-cavitated lesion on the other side was performed, without administering the topical intra-oral composition. This image was used as a control for determining the ability of the topical intra-oral compositions to selectively absorb into cavitated lesions, rather than non-cavitated lesions. Subsequently, the same tooth was administered a composition comprising sodium iodide and distilled water, with the composition having a sodium iodide concentration of 9 molar. After administration of the composition to the tooth, an x-ray image was obtained 3 minutes after administration. The results are illustrated in FIG. 3.

[5] = x-ray contrast imaging of identified dental caries before and after topical intra-oral composition; settings: 9 M sodium iodide in distilled water
Description: A radiographic contrast imaging analysis using x-ray imaging was performed, comparing the imaging of identified dental caries before and after administration of a topical intra-oral composition comprising sodium iodide and distilled water according to the methods of the current invention. Specifically, an x-ray image of a tooth with identified dental caries was performed, without administering the topical intra-oral composition. This image was used as a control for determining the ability of typical x-ray images to detect dental caries in a patient. Subsequently, the same tooth was administered a composition comprising sodium iodide and distilled water, with the composition having a sodium iodide concentration of 9 molar. After administration of the composition to the tooth, x-ray images were obtained 20 seconds after administration and 16 minutes after administration. Further, an x-ray image of the tooth was taken 14 days after administration of the composition to determine if the composition continued to reside in the dental carious lesion. The images obtained are found in FIG. 1.

## O=S(=O)([O-])[O-].[Ba+2] [barium sulfate]
[1]; 1 gram of barium sulfate in 0.5 ml distilled water
  radiographic contrast enhancement of tooth cavity: produced radiographic contrast enhancement revealing tooth cavitation
[2]
  radiographic image of shallow cavity: image showing a shallow cavity

## C[C@H](O)C(=O)Nc1c(I)c(C(=O)NC(CO)CO)c(I)c(C(=O)NC(CO)CO)c1I [iopamidol]
[1]; 76% solution of iopamidol
  radiographic contrast enhancement of tooth cavity: produced radiographic contrast enhancement revealing tooth cavitation

## [I-].[Na+] [sodium iodide]
[3]; cavitated surface
  radiographic image of dental caries (cavitated surface): enhanced radiographic image of dental caries
[3]; sound surface
  effect on imaging of sound tooth surfaces: does not affect the imaging of sound tooth surfaces
[1]; 9M solution of sodium iodide
  radiographic contrast enhancement of tooth cavity: produced radiographic contrast enhancement revealing tooth cavitation
[4]; cavitated lesion
  radiographic image of cavitated lesion (cavity): enhanced radiographic image of a cavitated lesion
[4]; non-cavitated lesion
  effect on imaging of non-cavitated lesions: does not affect the imaging of non-cavitated lesions
[5]; x-ray 20 seconds after administration
  radiographic image of dental caries versus control image: enhanced radiographic image of dental caries
[5]; x-ray 16 minutes after administration
  radiographic image of dental caries versus control image: enhanced radiographic image of dental caries
[5]; x-ray 14 days after administration
  x-ray appearance of composition in the carious lesion: altered x-ray appearance
